{"source": "EPA's ToxRefDB 2", "key": {"dog [1]": {"tested_on": "dog", "conditions": "Chronic toxicity; beagle; Oral; Feed; dose end: 52 week; group: systemic; systemic / in life observation / clinical signs / abnormal gait + systemic / in life observation / clinical signs / abnormal posture + …"}, "rat [2]": {"tested_on": "rat", "conditions": "Combined chronic toxicity/carcinogenicity, wistar, Oral, Feed, dose end: 104 week, group: systemic"}, "mouse [3]": {"tested_on": "mouse", "conditions": "Carcinogenicity, cd1, Oral, Feed, dose end: 80 week, group: systemic"}, "rabbit": {"tested_on": "rabbit", "conditions": "Prenatal developmental toxicity study, chinchilla, Oral, Gavage/Intubation, dose end: 18 GD, group: maternal"}, "rat [4]": {"tested_on": "rat", "conditions": "Prenatal developmental toxicity study, wistar, Oral, Gavage/Intubation, dose end: 15 GD"}, "dog [5]": {"tested_on": "dog", "conditions": "Chronic toxicity, beagle, Oral, Feed, dose end: 52 week, group: systemic"}, "dog [6]": {"tested_on": "dog", "conditions": "Subchronic oral toxicity in nonrodent, beagle, Feed, dose end: 13 week, group: systemic, systemic / in life observation / clinical signs / abnormal gait + systemic / in life observation / clinical signs / impaired reflex, nos + …"}, "dog [7]": {"tested_on": "dog", "conditions": "Chronic toxicity, beagle, Oral, Feed, dose end: 26 week, group: systemic"}, "rat [8]": {"tested_on": "rat", "conditions": "Combined chronic toxicity/carcinogenicity, fischer, Oral, Feed, dose end: 2 year, group: systemic"}, "rat [9]": {"tested_on": "rat", "conditions": "Multigenerational reproductive toxicity study, wistar, Oral, Feed, dose end: 3 generation"}, "mouse [10]": {"tested_on": "mouse", "conditions": "Combined chronic toxicity/carcinogenicity, other, Oral, Feed, dose end: 23 month, group: systemic"}, "rat [11]": {"tested_on": "rat", "conditions": "Subchronic oral toxicity in rodents, wistar, Feed, dose end: 13 week"}, "[12]": {"conditions": "systemic / in life observation / body weight / body weight + systemic / clinical chemistry / [other] / [other] + systemic / organ weight / …"}, "[13]": {"conditions": "systemic / in life observation / body weight / body weight gain"}, "[14]": {"conditions": "systemic / in life observation / body weight / body weight gain + systemic / pathology gross / ear / lesion(s) (nos) + systemic / pathology …"}, "[15]": {"conditions": "systemic / in life observation / body weight / body weight gain + systemic / in life observation / food consumption / food consumption + …"}, "[16]": {"conditions": "group: developmental, developmental / developmental malformation / bone / enlarged fontanel + developmental / developmental malformation / bone / incomplete …"}, "[17]": {"conditions": "group: maternal, systemic / in life observation / body weight / body weight gain + systemic / in life observation / food consumption / food consumption + …"}, "[18]": {"conditions": "systemic / in life observation / clinical signs / ataxia + systemic / in life observation / clinical signs / defecation (diarrhea) + …"}, "[19]": {"conditions": "systemic / in life observation / clinical signs / defecation (diarrhea) + systemic / in life observation / clinical signs / stiffness + …"}, "[20]": {"conditions": "systemic / in life observation / body weight / body weight + systemic / in life observation / body weight / body weight gain + systemic / in…"}, "[21]": {"conditions": "group: offspring, developmental / offspring survival late / viability index / viability index + systemic / in life observation / body weight / offspring (pup…"}, "[22]": {"conditions": "group: offspring, systemic / in life observation / body weight / offspring (pup) weight gain + developmental / offspring survival late / viability index / …"}, "[23]": {"conditions": "group: parental, systemic / in life observation / body weight / body weight"}, "[24]": {"conditions": "systemic / clinical chemistry / alkaline phosphatase (alp/alk) / alkaline phosphatase (alp/alk)"}, "[25]": {"conditions": "systemic / clinical chemistry / alkaline phosphatase (alp/alk) / alkaline phosphatase (alp/alk) + systemic / in life observation / body …"}, "[26]": {"conditions": "group: cholinesterase, cholinesterase / cholinesterase / cholinesterase / cholinesterase (che)"}, "[27]": {"conditions": "group: systemic, systemic / clinical chemistry / chloride / chloride"}}}
{"molecule": "CC1(C)C(C=C(Cl)Cl)C1C(=O)OC(C#N)c1ccc(F)c(Oc2ccccc2)c1", "note": "(stereo not given) [Cyfluthrin]", "values": [{"measurement": "LEL", "setting": "dog [1]", "result": 10.6, "unit": "mg/kg/day"}, {"measurement": "LOAEL", "setting": "dog [1]", "result": 10.6, "unit": "mg/kg/day"}, {"measurement": "NEL", "setting": "dog [1]", "result": 2.43, "unit": "mg/kg/day"}, {"measurement": "NOAEL", "setting": "dog [1]", "result": 2.43, "unit": "mg/kg/day"}, {"measurement": "LOAEL", "setting": "rat [2]; systemic / in life observation / body weight / body weight", "result": 19.2, "unit": "mg/kg/day"}, {"measurement": "LEL", "setting": "rat [2]; systemic / in life observation / body weight / body weight + systemic / clinical chemistry / [other] / [other]", "result": 6.19, "unit": "mg/kg/day"}, {"measurement": "NEL", "setting": "rat [2]; [12]", "result": 2.02, "unit": "mg/kg/day"}, {"measurement": "NOAEL", "setting": "rat [2]; [12]", "result": 6.19, "unit": "mg/kg/day"}, {"measurement": "LEL", "setting": "mouse [3]; [13]", "result": 31.9, "unit": "mg/kg/day"}, {"measurement": "NEL", "setting": "mouse [3]; [13]", "result": "< 31.9", "unit": "mg/kg/day"}, {"measurement": "LOAEL", "setting": "mouse [3]; [14]", "result": 115, "unit": "mg/kg/day"}, {"measurement": "NOAEL", "setting": "mouse [3]; [14]", "result": 31.9, "unit": "mg/kg/day"}, {"measurement": "LOAEL", "setting": "rabbit; systemic / in life observation / body weight / body weight gain + systemic / in life observation / food consumption / food consumption", "result": 60, "unit": "mg/kg/day"}, {"measurement": "LEL", "setting": "rabbit; [15]", "result": 60, "unit": "mg/kg/day"}, {"measurement": "NEL", "setting": "rabbit; [15]", "result": 20, "unit": "mg/kg/day"}, {"measurement": "NOAEL", "setting": "rabbit; [15]", "result": 20, "unit": "mg/kg/day"}, {"measurement": "LEL", "setting": "rat [4]; [16]", "result": 40, "unit": "mg/kg/day"}, {"measurement": "LOAEL", "setting": "rat [4]; [16]", "result": 40, "unit": "mg/kg/day"}, {"measurement": "NEL", "setting": "rat [4]; [16]", "result": 10, "unit": "mg/kg/day"}, {"measurement": "NOAEL", "setting": "rat [4]; [16]", "result": 10, "unit": "mg/kg/day"}, {"measurement": "LOAEL", "setting": "rat [4]; group: maternal, systemic / in life observation / body weight / body weight gain + systemic / in life observation / food consumption / food consumption", "result": 10, "unit": "mg/kg/day"}, {"measurement": "LEL", "setting": "rat [4]; [17]", "result": 10, "unit": "mg/kg/day"}, {"measurement": "NEL", "setting": "rat [4]; [17]", "result": 3, "unit": "mg/kg/day"}, {"measurement": "NOAEL", "setting": "rat [4]; [17]", "result": 3, "unit": "mg/kg/day"}, {"measurement": "LOAEL", "setting": "dog [5]; systemic / in life observation / clinical signs / ataxia", "result": 16, "unit": "mg/kg/day"}, {"measurement": "LEL", "setting": "dog [5]; [18]", "result": 16, "unit": "mg/kg/day"}, {"measurement": "NEL", "setting": "dog [5]; [18]", "result": 4, "unit": "mg/kg/day"}, {"measurement": "NOAEL", "setting": "dog [5]; [18]", "result": 4, "unit": "mg/kg/day"}, {"measurement": "LEL", "setting": "dog [6]", "result": 13.9, "unit": "mg/kg/day"}, {"measurement": "LOAEL", "setting": "dog [6]", "result": 13.9, "unit": "mg/kg/day"}, {"measurement": "NEL", "setting": "dog [6]", "result": 2.36, "unit": "mg/kg/day"}, {"measurement": "NOAEL", "setting": "dog [6]", "result": 2.36, "unit": "mg/kg/day"}, {"measurement": "LOAEL", "setting": "dog [7]; [19]", "result": 15, "unit": "mg/kg/day"}, {"measurement": "NEL", "setting": "dog [7]; [19]", "result": 1.62, "unit": "mg/kg/day"}, {"measurement": "NOAEL", "setting": "dog [7]; [19]", "result": 5, "unit": "mg/kg/day"}, {"measurement": "LEL", "setting": "dog [7]; systemic / organ weight / thymus / absolute", "result": 5, "unit": "mg/kg/day"}, {"measurement": "LOAEL", "setting": "rat [8]; systemic / in life observation / body weight / body weight + systemic / in life observation / body weight / body weight gain", "result": 11.6, "unit": "mg/kg/day"}, {"measurement": "NEL", "setting": "rat [8]; [20]", "result": 2.6, "unit": "mg/kg/day"}, {"measurement": "NOAEL", "setting": "rat [8]; [20]", "result": 2.6, "unit": "mg/kg/day"}, {"measurement": "LEL", "setting": "rat [8]; systemic / in life observation / body weight / body weight + systemic / in life observation / body weight / body weight gain + systemic / …", "result": 11.6, "unit": "mg/kg/day"}, {"measurement": "LOAEL", "setting": "rat [9]; [21]", "result": 12.3, "unit": "mg/kg/day"}, {"measurement": "NOAEL", "setting": "rat [9]; [21]", "result": 3.8, "unit": "mg/kg/day"}, {"measurement": "LEL", "setting": "rat [9]; [22]", "result": 3.8, "unit": "mg/kg/day"}, {"measurement": "NEL", "setting": "rat [9]; [22]", "result": "< 3.8", "unit": "mg/kg/day"}, {"measurement": "LEL", "setting": "rat [9]; [23]", "result": 3.8, "unit": "mg/kg/day"}, {"measurement": "NEL", "setting": "rat [9]; [23]", "result": "< 3.8", "unit": "mg/kg/day"}, {"measurement": "LOAEL", "setting": "rat [9]; group: parental, systemic / in life observation / body weight / body weight gain", "result": 37.2, "unit": "mg/kg/day"}, {"measurement": "NOAEL", "setting": "rat [9]; group: parental, systemic / in life observation / body weight / body weight gain + systemic / in life observation / body weight / body weight", "result": 12.3, "unit": "mg/kg/day"}, {"measurement": "LEL", "setting": "mouse [10]; [24]", "result": 11.6, "unit": "mg/kg/day"}, {"measurement": "NEL", "setting": "mouse [10]; [24]", "result": "< 11.6", "unit": "mg/kg/day"}, {"measurement": "LOAEL", "setting": "mouse [10]; [25]", "result": "> 194", "unit": "mg/kg/day"}, {"measurement": "NOAEL", "setting": "mouse [10]; [25]", "result": "≥ 194", "unit": "mg/kg/day"}, {"measurement": "LEL", "setting": "rat [11]; [26]", "result": 38.9, "unit": "mg/kg/day"}, {"measurement": "LOAEL", "setting": "rat [11]; [26]", "result": "> 38.9", "unit": "mg/kg/day"}, {"measurement": "NEL", "setting": "rat [11]; [26]", "result": 9.5, "unit": "mg/kg/day"}, {"measurement": "NOAEL", "setting": "rat [11]; [26]", "result": "≥ 38.9", "unit": "mg/kg/day"}, {"measurement": "LEL", "setting": "rat [11]; [27]", "result": 2.3, "unit": "mg/kg/day"}, {"measurement": "NEL", "setting": "rat [11]; [27]", "result": "< 2.3", "unit": "mg/kg/day"}, {"measurement": "NOAEL", "setting": "rat [11]; group: systemic, systemic / clinical chemistry / chloride / chloride + systemic / in life observation / body weight / body weight gain + systemic / in life …", "result": 9.5, "unit": "mg/kg/day"}, {"measurement": "LOAEL", "setting": "rat [11]; group: systemic, systemic / in life observation / body weight / body weight gain + systemic / in life observation / clinical signs / lack of coordination + …", "result": 38.9, "unit": "mg/kg/day"}]}
